Measurements reported in paper PMC6934184, “Selective DNA-PKcs inhibition extends the therapeutic index of localized radiotherapy and chemotherapy” (The Journal of Clinical Investigation, 2019).

Biological target: T1, EPHA7 (Homo sapiens, UniProt Q15375)
T1 construct: purchased Thermo Fisher Scientific (Life Technologies) SelectScreen
Experiment: SelectScreen LanthaScreen
Format: binding
Conditions: read-out: % displacement
How it was run: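 Percent values come from Thermo SelectScreen profiling of NU5455, combining activity and binding assays. CSF1R was run in Z'LYTE format at Km app ATP, and CAMK1 in Adapta format with ATP listed at 10.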

T1 sequence (Q15375 28-998): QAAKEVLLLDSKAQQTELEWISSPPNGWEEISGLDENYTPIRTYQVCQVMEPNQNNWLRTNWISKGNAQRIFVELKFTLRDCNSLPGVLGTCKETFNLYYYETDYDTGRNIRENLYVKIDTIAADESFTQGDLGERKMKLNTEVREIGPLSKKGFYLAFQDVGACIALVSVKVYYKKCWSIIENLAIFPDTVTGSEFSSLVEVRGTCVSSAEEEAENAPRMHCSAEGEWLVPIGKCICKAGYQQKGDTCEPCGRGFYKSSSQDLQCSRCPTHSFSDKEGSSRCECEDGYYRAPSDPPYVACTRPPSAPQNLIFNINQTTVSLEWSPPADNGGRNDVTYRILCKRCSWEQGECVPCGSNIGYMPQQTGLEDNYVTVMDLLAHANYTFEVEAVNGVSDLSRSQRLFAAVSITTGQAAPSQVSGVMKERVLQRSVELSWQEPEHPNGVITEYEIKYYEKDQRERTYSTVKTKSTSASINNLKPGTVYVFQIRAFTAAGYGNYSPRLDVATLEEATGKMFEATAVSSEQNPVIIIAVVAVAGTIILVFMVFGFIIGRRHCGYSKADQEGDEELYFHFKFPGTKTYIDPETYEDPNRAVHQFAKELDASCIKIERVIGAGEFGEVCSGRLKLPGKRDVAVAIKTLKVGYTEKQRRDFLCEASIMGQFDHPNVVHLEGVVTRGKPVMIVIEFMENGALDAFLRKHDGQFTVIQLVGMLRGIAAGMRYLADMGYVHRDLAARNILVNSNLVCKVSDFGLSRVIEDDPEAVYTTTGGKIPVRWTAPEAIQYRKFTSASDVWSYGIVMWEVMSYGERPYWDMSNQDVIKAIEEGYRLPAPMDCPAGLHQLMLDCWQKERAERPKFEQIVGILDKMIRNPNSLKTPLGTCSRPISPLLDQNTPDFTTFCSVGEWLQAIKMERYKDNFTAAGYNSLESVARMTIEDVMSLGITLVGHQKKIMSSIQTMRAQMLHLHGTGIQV

Work on CN(C(=O)CN1CCOCC1)c1ccc2sc3c(-c4cccc5c(=O)cc(N6CC7CCC(C6)O7)oc45)cccc3c2c1 [NU5455] yielded an inhibition at 1 µM of 1.2%.
